System: Plasmopara viticola
Assay: Activity against Peronospora of vines caused by Plasmopara viticola (persistence test on potted vines)
Format: in vivo
Settings: individual active compound, vines "Müller-Thurgau", inoculated 3 days after spraying
Method: The active compounds were prepared separately or together as a stock solution comprising 0.25% of active compound in acetone or DMSO. 1% by weight of the emulsifier Uniperol® EM (wetting agent having emulsifying and dispersing action based on ethoxylated alkylphenols) was added, and the mixture was diluted with water to the desired concentration.
Evaluation is carried out by determining the infected leaf areas in percent. These percentages are converted into efficacies. The expected efficacies of the active compound mixtures are determined using Colby's formula [R. S. Colby, Weeds 15, 20-22 (1967)] and compared with the observed efficacies.
Colby's formula: E=x+y−x.y/100 • E expected efficacy, expressed in % of the untreated control, when using the mixture of the active compounds A and B at the concentrations a and b • x efficacy, expressed in % of the untreated control, when using active compound A at a concentration of a • y efficacy, expressed in % of the untreated control, when using active compound B at a concentration of b
The efficacy (E) is calculated as follows using Abbot's formula: E=(1−α/β)·100 • α corresponds to the fungal infection of the treated plants in % and • β corresponds to the fungal infection of the untreated (control) plants in %
An efficacy of 0 means that the infection level of the treated plants corresponds to that of the untreated control plants; an efficacy of 100 means that the treated plants were not infected.
Leaves of potted vines of the cultivar “Müller-Thurgau” were sprayed to runoff point with an aqueous suspension having the concentration of active compound stated below. To be able to assess the persistence of the substances, the plants were, after the spray coating had dried on, placed in a green house for 3 days. Only then were the leaves inoculated with an aqueous zoospore suspension of Plasmopara viticola. The vines were then initially placed in a water-vapor-saturated chamber at 24° C. for 48 hours and then in a greenhouse at 20-30° C. for 5 days. After this period of time, the plants were again placed in a moist chamber for 16 hours to promote sporangiophore eruption. The extent to which the infection had developed on the undersides of the leaves was then determined visually.

Row | Structure (SMILES) | Efficacy in % of the untreated control (3.75 ppm in the spray liquor) | Efficacy in % of the untreated control (7.5 ppm in the spray liquor) | Efficacy in % of the untreated control (15 ppm in the spray liquor) | Efficacy in % of the untreated control (30 ppm in the spray liquor)
1 | CCCOC(=O)NCCN(C)C [I, propyl (2-dimethylaminoethyl)carbamate] | 0 % of the untreated control | 0 % of the untreated control | 0 % of the untreated control | 0 % of the untreated control
2 | N#Cc1sc2c(=O)c3ccccc3c(=O)c=2sc1C#N [II, dithianon] |  |  |  | 89 % of the untreated control

Reference: patent publication US7074422B2, “Fungicidal mixtures” (BASF Aktiengesellschaft, priority 2002, dated 2006)
